For this assay, the system named is H. influenzae ATCC 49247. In words: MIC assay. Format: cell-based. Conditions: Haemophilus influenzae, ATCC49247. The source says:
5. Haemophilus influenzae ATCC 49247—a member of the genus Haemophilus, these organisms are Gram-negative bacilli which grow under aerobic or anaerobic conditions but require media with special supplements for laboratory culture. Strains of H. influenzae may be capsulated or non-capsulated. The capsulate strains are divided into serotypes, (designated b,c,d,e,f), on the basis of capsular antigens. The serotype H. influenzae type b is an important cause of invasive infections in humans, particularly in young children. The non-capsulate strains are common commensals in the upper respiratory tract, although there are also some healthy carriers of the type b strain. In the context of skin and topical treatments, H. influenzae can be a cause of cellulitis and otitis media (middle ear infection), again particularly in young children. […]
This is a standard international method for quantitatively assessing the antimicrobial activity of a compound in a liquid medium. […]
The wells were inoculated with a liquid suspension of freshly grown micro-organism and incubated under the conditions described above. […] The MIC value was recorded as the lowest concentration of test compound required to inhibit microbial growth, i.e., the lowest concentration for which the liquid in the well remained clear. […]

The structures appear in SMILES notation. In brackets after ≈: the same amount, converted by molar mass.

`CC(C)(C)c1cc(O)ccc1O` [TBHQ, 2-t-butyl hydroquinone] came in with an MIC of 15.6 µg/mL (≈ 93.9 µM).
